Our source for the IC50 values is patent publication US8080657B2, “Compounds of reverse turn mimetics and the use thereof” (Choongwae Pharma Corporation, priority 2008, dated 2011).

Like-named read-outs stand apart in the source and are kept apart here.

The subject of this assay is Wnt signaling. The assay is described as follows: TopFlash reporter gene bioassay in SW480 cells. The following applies: read-out: RGA, IC50 (μM) TopF. Format: cell-based. A general note: A reporter such as luciferase makes a cellular process visible.
Where [1] appears, read: Homo sapiens, SW480, TopFlash reporter gene assay, inhibition of Wnt signaling.

The term IC50 denotes the point on the concentration scale where inhibition reaches its midpoint. Turning to `C=CCN1CC(=O)N2[C@@H](Cc3ccc(O)cc3)C(=O)N(Cc3cccnc3-c3ccc(OC)cc3)C[C@@H]2N1C(=O)NCc1ccccc1` [compound 180], the 50% inhibitory concentration (IC50) under setting [1] amounted to 2.42 ± 0.47 µM. With `C=CCN1CC(=O)N2[C@@H](Cc3ccc(O)cc3)C(=O)N(Cc3cccnc3N3CCC(N4CCCC4)CC3)C[C@@H]2N1C(=O)NCc1ccccc1` [compound 199], the half-inhibitory concentration (IC50) under setting [1] came out at 25.9 ± 3.38 µM. Regarding `C=CCN1CC(=O)N2[C@@H](Cc3ccc(O)cc3)C(=O)N(Cc3cccc(C(=O)N4CC=CC4)c3)C[C@@H]2N1C(=O)NCc1ccccc1` [compound 239], under setting [1], the half-maximal inhibitory concentration (IC50) is 5.09 ± 1.32 µM. On to `C=CCN1CC(=O)N2[C@@H](Cc3ccc(O)cc3)C(=O)N(Cc3cccc(C(=O)OC)c3[N+](=O)[O-])C[C@@H]2N1C(=O)NCc1ccccc1` [compound 131], for which, under setting [1], the half-inhibitory concentration (IC50) stood at 1.66 ± 0.27 µM. In the case of `C=CCN1CC(=O)N2[C@@H](Cc3ccc(O)cc3C)C(=O)N(Cc3ccc(F)cc3F)C[C@@H]2N1C(=O)NCc1ccccc1` [compound 196], under setting [1], the IC50 worked out at 21.2 ± 2.15 µM. Turning to `C=CCN1CC(=O)N2[C@@H](Cc3ccc(OS(N)(=O)=O)cc3)C(=O)N(Cc3cccc4c(C(C)=O)c[nH]c34)C[C@@H]2N1C(=O)NCc1ccccc1` [compound 29], the half-inhibitory concentration (IC50) under setting [1] was 0.53 ± 0.24 µM. In the case of `C=CCN1CC(=O)N2[C@@H](Cc3ccc(O)cc3)C(=O)N(Cc3ccc4cc[nH]c4c3)C[C@@H]2N1C(=O)NCc1ccccc1` [compound 223], the half-inhibitory concentration (IC50) (Homo sapiens, SW480) was determined as 4.01 ± 0.96 µM.

As for `C=CCN1CC(=O)N2[C@@H](Cc3ccc(O)cc3)C(=O)N(Cc3cccc(C(C)(C)C)c3OC)C[C@@H]2N1C(=O)NCc1ccccc1` [compound 89], the IC50 under setting [1] came to 1.03 ± 0.11 µM. Consider `C=CCN1CC(=O)N2[C@@H](Cc3ccc(OCC(O)CO)cc3)C(=O)N(Cc3cccc4scnc34)C[C@@H]2N1C(=O)NCc1ccccc1` (some centres unmarked) [compound 222], for which the IC50 under setting [1] was determined as 36.4 ± 2 µM. For `C=CCN1CC(=O)N2[C@@H](Cc3ccc(OP(=O)(O)O)cc3)C(=O)N(Cc3ccc(OC)cc3F)C[C@@H]2N1C(=O)NCc1ccccc1` [compound 216], for the setting “Homo sapiens, SW480”, the concentration for half-maximal inhibition (IC50) stood at 3.8 ± 1.1 µM. For `C=CCN1CC(=O)N2[C@@H](Cc3ccc(O)cc3)C(=O)N(Cc3cccc4cc[nH]c34)C[C@@H]2N1C(=O)NCc1ccccc1` [compound 65], the IC50 under setting [1] turned out to be 0.83 ± 0.22 µM. Same read-out and setting: the same measure for `C=CCN1CC(=O)N2[C@@H](Cc3ccc(O)cc3)C(=O)N(Cc3ccnc(N)n3)C[C@@H]2N1C(=O)NCc1ccccc1` [compound 264]: 9.11 ± 1.82 µM; for `C=CCN1CC(=O)N2[C@@H](Cc3ccc(O)cc3)C(=O)N(Cc3cccc(-c4ccc(F)nc4)c3)C[C@@H]2N1C(=O)NCc1ccccc1` [compound 33]: 0.56 ± 0.44 µM. Turning to `C=CCN1CC(=O)N2[C@@H](Cc3ccc(O)cc3)C(=O)N(Cc3cccc(-c4cccc(OC)c4)n3)C[C@@H]2N1C(=O)NCc1ccccc1` [compound 218], the IC50 under setting [1] was found to be 3.96 ± 0.93 µM. `C=CCN1CC(=O)N2[C@@H](Cc3ccc(O)cc3)C(=O)N(Cc3cccnc3-c3ccccc3OC)C[C@@H]2N1C(=O)NCc1ccccc1` [compound 165]: the IC50 under setting [1] stood at 17.2 ± 4.11 µM.

As to `C=CCN1CC(=O)N2[C@@H](Cc3ccc(O)cc3)C(=O)N(Cc3cccc(C(=O)OC)c3)C[C@@H]2N1C(=O)NCc1ccccc1` [compound 46], under setting [1], the IC50 was 0.69 ± 0.15 µM. Same read-out and setting: to `C=CCN1CC(=O)N2[C@@H](Cc3ccc(O)cc3)C(=O)N(Cc3cccc(C(=O)NC)c3[N+](=O)[O-])C[C@@H]2N1C(=O)NCc1ccccc1` [compound 258] belongs 7.51 ± 2.1 µM; to `C=CCN1CC(=O)N2[C@@H](Cc3ccc(NC=O)cc3)C(=O)N(Cc3cccc4scnc34)C[C@@H]2N1C(=O)NCc1ccccc1` [compound 50], 0.72 ± 0.075 µM; to `C=CCN1CC(=O)N2[C@@H](Cc3ccc(O)cc3)C(=O)N(Cc3cccnc3-c3cccnc3)C[C@@H]2N1C(=O)NCc1ccccc1` [compound 198], 22.2 ± 5.69 µM.

For the molecule `C=CCN1CC(=O)N2[C@@H](Cc3ccc(O)cc3)C(=O)N(Cc3ccnc(C(N)=O)c3)C[C@@H]2N1C(=O)NCc1ccccc1` [compound 153], the IC50 under setting [1] amounted to 10.8 ± 1.97 µM. For `C=CCN1CC(=O)N2[C@@H](Cc3ccc(O)cc3)C(=O)N(Cc3cccc4ccn(Cc5cccc(N)c5)c34)C[C@@H]2N1C(=O)NCc1ccccc1` [compound 213], the concentration for half-maximal inhibition (IC50) under setting [1] is 3.62 ± 0.65 µM. With `C=CCN1CC(=O)N2[C@@H](Cc3ccc(O)cc3)C(=O)N(Cc3ccc(F)c4scnc34)C[C@@H]2N1C(=O)NCc1ccc(OC)c(OC)c1` [compound 224], under setting [1], the IC50 stood at 4.3 ± 0.7 µM. Take `C=CCN1CC(=O)N2[C@@H](Cc3ccc(O)cc3)C(=O)N(Cc3cccc4ccn(S(=O)(=O)c5ccc(Cl)cc5)c34)C[C@@H]2N1C(=O)NCc1ccccc1` [compound 20]: under setting [1], the IC50 was 0.43 ± 0.1 µM. For `C=CCN1CC(=O)N2[C@@H](Cc3ccc(O)cc3F)C(=O)N(Cc3ccc(F)cc3F)C[C@@H]2N1C(=O)NCc1ccccc1` [compound 74], the 50% inhibitory concentration (IC50) under setting [1] worked out at 0.91 ± 0.11 µM. `C=CCN1CC(=O)N2[C@@H](Cc3ccc(OP(=O)(O)O)cc3)C(=O)N(Cc3csc4cc(N)ccc34)C[C@@H]2N1C(=O)NCc1ccccc1` [compound 24]: the concentration for half-maximal inhibition (IC50) (Homo sapiens, SW480) is 0.48 ± 0.11 µM.

For the molecule `C=CCOc1ccc(CN2C[C@H]3N(C(=O)CN(CC=C)N3C(=O)NCc3ccccc3)[C@@H](Cc3ccc(O)cc3)C2=O)cc1` [compound 123], the IC50 under setting [1] was found to be 1.55 ± 0.21 µM. In the case of `C=CCN1CC(=O)N2[C@@H](Cc3ccc(O)cc3)C(=O)N(Cc3ccc(F)c4scnc34)C[C@@H]2N1C(=O)NCc1ccccc1F` [compound 158], the IC50 under setting [1] is 12.5 ± 2.66 µM. For the molecule `C=CCN1CC(=O)N2[C@@H](Cc3ccc(O)cc3)C(=O)N(Cc3cccc(C(=O)NC)n3)C[C@@H]2N1C(=O)NCc1ccccc1` [compound 48], the IC50 under setting [1] stood at 0.7 ± 0.26 µM.

Take `C=CCN1CC(=O)N2[C@@H](Cc3ccc(O)cc3)C(=O)N(Cc3ccccc3S(=O)(=O)c3ccc(Cl)cc3)C[C@@H]2N1C(=O)NCc1ccccc1` [compound 170]: the half-maximal inhibitory concentration (IC50) under setting [1] came out at 2.07 ± 0.43 µM. For `C=CCN1CC(=O)N2[C@@H](Cc3ccc(O)cc3)C(=O)N(Cc3csc4c(NC(=O)OC)cccc34)C[C@@H]2N1C(=O)NCc1ccccc1` [compound 167], the IC50 under setting [1] stood at 19.4 ± 3.4 µM. On to `C=CCN1CC(=O)N2[C@@H](Cc3ccc(O)cc3)C(=O)N(Cc3ccc(F)c4scnc34)C[C@@H]2N1C(=O)NCCc1ccccc1` [compound 178], for which the 50% inhibitory concentration (IC50) (TopFlash reporter gene assay, inhibition of Wnt signaling) was determined as 2.38 ± 0.75 µM.

With `C=CCN1CC(=O)N2[C@@H](Cc3ccc(O)cc3)C(=O)N(Cc3cccc(C(=O)NCCC)c3)C[C@@H]2N1C(=O)NCc1ccccc1` [compound 9], the 50% inhibitory concentration (IC50) (Homo sapiens, SW480) was determined as 0.3 ± 0.02 µM. Consider `C=CCN1CC(=O)N2[C@@H](Cc3ccc(O)cc3)C(=O)N(Cc3cccc(OC)c3OC3CCCC3)C[C@@H]2N1C(=O)NCc1ccccc1` [compound 139], for which the concentration for half-maximal inhibition (IC50) under setting [1] came out at 1.89 ± 0.38 µM. Turning to `C=CCN1CC(=O)N2[C@@H](Cc3ccc(O)cc3)C(=O)N(Cc3csc4c(N)cccc34)C[C@@H]2N1C(=O)NCc1ccccc1` [compound 206], the IC50 under setting [1] is 3.18 ± 0.75 µM. On to `C=CCN1CC(=O)N2[C@@H](Cc3ccc(O)cc3)C(=O)N(Cc3cccc(C(=O)NC)c3)C[C@@H]2N1C(=O)NCc1ccccc1` [compound 183], for which the half-inhibitory concentration (IC50) under setting [1] turned out to be 52.5 ± 0.32 µM. Consider `C=CCN1CC(=O)N2[C@@H](Cc3ccc(O)cc3)C(=O)N(Cc3cccc4c3oc3ccccc34)C[C@@H]2N1C(=O)NCc1ccccc1` [compound 26], for which the concentration for half-maximal inhibition (IC50) under setting [1] was 0.52 ± 0.048 µM. With `C=CCN1CC(=O)N2[C@@H](Cc3ccc(O)cc3)C(=O)N(Cc3cccc(C(=O)NCC4CCCO4)c3)C[C@@H]2N1C(=O)NCc1ccccc1` (some centres unmarked) [compound 106], the 50% inhibitory concentration (IC50) under setting [1] worked out at 1.28 ± 0.1 µM. `C=CCN1CC(=O)N2[C@@H](Cc3ccc(O)cc3)C(=O)N(Cc3cccc4c3ncn4C(=O)CNC(=O)OC(C)(C)C)C[C@@H]2N1C(=O)NCc1ccccc1` [compound 99]: the half-maximal inhibitory concentration (IC50) under setting [1] was determined as 1.17 ± 0.27 µM.
